Data as given in the NIST ThermoML archive (doi:10.1021/je300086w).
± gives the expanded uncertainty stated by the source.

Assays:
[1] = for Normal melting temperature: Crystal, AC calorimetry; for viscosity / mass density: 101.33 kPa, Liquid; for mass density: Vibrating tube method
[2] = refractive index (Na D-line) (dimensionless); conditions: 101.33 kPa, Liquid, Standard Abbe refractometry

SMILES	viscosity ([1]; 293.15 K) [mPa·s]	mass density ([1]; 293.15 K) [kg/m3]	viscosity ([1]; 298.15 K) [mPa·s]	mass density ([1]; 298.15 K) [kg/m3]	viscosity ([1]; 303.15 K) [mPa·s]	mass density ([1]; 303.15 K) [kg/m3]	viscosity ([1]; 308.15 K) [mPa·s]	mass density ([1]; 308.15 K) [kg/m3]	viscosity ([1]; 313.15 K) [mPa·s]	mass density ([1]; 313.15 K) [kg/m3]	viscosity ([1]; 318.15 K) [mPa·s]	mass density ([1]; 318.15 K) [kg/m3]	viscosity ([1]; 323.15 K) [mPa·s]	mass density ([1]; 323.15 K) [kg/m3]	viscosity ([1]; 328.15 K) [mPa·s]	mass density ([1]; 328.15 K) [kg/m3]	viscosity ([1]; 333.15 K) [mPa·s]	mass density ([1]; 333.15 K) [kg/m3]	viscosity ([1]; 338.15 K) [mPa·s]	mass density ([1]; 338.15 K) [kg/m3]	other results
CC(=O)OCC[N+](C)(C)C [2-acetoxy-N,N,N-trimethylethanaminium]																					Normal melting temperature [1]: 72.0 ± 1 °C
CCCCCC(=O)[O-].C[N+](C)(C)CCO [2-hydroxy-N,N,N-trimethylethanaminium hexanoate]	929.2 ± 73	1018.8 ± 1	710.7 ± 51	1015.7 ± 1	530.4 ± 34	1012.5 ± 1	400.3 ± 23	1009.8 ± 1	298 ± 14	1006.8 ± 1	225.9 ± 9.3	1003.9 ± 1	175.3 ± 6	1001.3 ± 1	140.3 ± 4	998.4 ± 1	110.9 ± 2.5	995.5 ± 1	89.7 ± 1.5	992.6 ± 1	viscosity ([1]; 343.15 K): 73.7 ± 0.9 mPa·s; mass density ([1]; 343.15 K): 989.7 ± 1 kg/m3; viscosity ([1]; 348.15 K): 60.9 ± 0.6 mPa·s; mass density ([1]; 348.15 K): 986.8 ± 1 kg/m3; viscosity ([1]; 353.15 K): 51 ± 0.4 mPa·s; mass density ([1]; 353.15 K): 984 ± 1 kg/m3; refractive index ([2]; 293.15 K): 1.4726 ± 0.0004; refractive index ([2]; 298.15 K): 1.4709 ± 0.0004; refractive index ([2]; 303.15 K): 1.4692 ± 0.0004; refractive index ([2]; 308.15 K): 1.4675 ± 0.0004; refractive index ([2]; 313.15 K): 1.4658 ± 0.0004; refractive index ([2]; 318.15 K): 1.464 ± 0.0004; refractive index ([2]; 323.15 K): 1.4624 ± 0.0004; refractive index ([2]; 328.15 K): 1.4607 ± 0.0004; refractive index ([2]; 333.15 K): 1.459 ± 0.0004
CCCC(=O)[O-].C[N+](C)(C)CCO [choline butanoate]	833.1 ± 63	1049.5 ± 1	630.6 ± 43	1046.5 ± 1	459.3 ± 28	1043.4 ± 1	344.2 ± 18	1040.5 ± 1	254 ± 11	1037.6 ± 1	193.8 ± 7.2	1034.6 ± 1	150.2 ± 4.5	1031.9 ± 1	118.2 ± 2.8	1029 ± 1	94.3 ± 1.7	1026.2 ± 1	76.1 ± 1	1023.4 ± 1	viscosity ([1]; 343.15 K): 62.2 ± 0.6 mPa·s; mass density ([1]; 343.15 K): 1020.5 ± 1 kg/m3; viscosity ([1]; 348.15 K): 51.4 ± 0.4 mPa·s; mass density ([1]; 348.15 K): 1017.2 ± 1 kg/m3; viscosity ([1]; 353.15 K): 42.9 ± 0.4 mPa·s; mass density ([1]; 353.15 K): 1014.5 ± 1 kg/m3; refractive index ([2]; 293.15 K): 1.4716 ± 0.0004; refractive index ([2]; 298.15 K): 1.47 ± 0.0004; refractive index ([2]; 303.15 K): 1.4683 ± 0.0004; refractive index ([2]; 308.15 K): 1.4667 ± 0.0004; refractive index ([2]; 313.15 K): 1.465 ± 0.0004; refractive index ([2]; 318.15 K): 1.4633 ± 0.0004; refractive index ([2]; 323.15 K): 1.4617 ± 0.0004; refractive index ([2]; 328.15 K): 1.46 ± 0.0004; refractive index ([2]; 333.15 K): 1.4585 ± 0.0004
CC(C)(C)C(=O)[O-].C[N+](C)(C)CCO [choline pivalate]																					Normal melting temperature [1]: 96.0 ± 1 °C
CCC(=O)[O-].C[N+](C)(C)CCO [cholinium propanoate]	395.8 ± 22	1074.6 ± 1	290.2 ± 14	1071.5 ± 1	215.6 ± 8.6	1068.6 ± 1	163.2 ± 5.3	1065.7 ± 1	125.8 ± 3.2	1062.8 ± 1	98.5 ± 1.9	1060 ± 1	78.3 ± 1.1	1057.2 ± 1	63 ± 0.6	1054.3 ± 1	51.4 ± 0.4	1051.4 ± 1	42.4 ± 0.4	1048.6 ± 1	viscosity ([1]; 343.15 K): 35.4 ± 0.4 mPa·s; mass density ([1]; 343.15 K): 1045.8 ± 1 kg/m3; viscosity ([1]; 348.15 K): 29.8 ± 0.3 mPa·s; mass density ([1]; 348.15 K): 1042.9 ± 1 kg/m3; viscosity ([1]; 353.15 K): 25.4 ± 0.3 mPa·s; mass density ([1]; 353.15 K): 1040.1 ± 1 kg/m3; refractive index ([2]; 293.15 K): 1.4705 ± 0.0004; refractive index ([2]; 298.15 K): 1.4686 ± 0.0004; refractive index ([2]; 303.15 K): 1.4668 ± 0.0004; refractive index ([2]; 308.15 K): 1.465 ± 0.0004; refractive index ([2]; 313.15 K): 1.4631 ± 0.0004; refractive index ([2]; 318.15 K): 1.4611 ± 0.0004; refractive index ([2]; 323.15 K): 1.4592 ± 0.0004; refractive index ([2]; 328.15 K): 1.4573 ± 0.0004; refractive index ([2]; 333.15 K): 1.4555 ± 0.0004
